Results reported in article PMC9718795, “Caffeic acid N-[3,5-bis(trifluoromethyl)phenyl] amide as a non-steroidal inhibitor for steroid 5α-reductase type 1 using a human keratinocyte cell-based assay and molecular dynamics” (Scientific Reports, 2022).

Experiments:
[1] = Cell viability (MTT) run in parallel with the HaCaT-based SRD5A1 inhibitory assay; design: species or system human; details: human, HaCaT cells, HaCaT, 24 h
HaCaT cells = assay: as above; design: species or system human; details: HaCaT
[2] = In vitro cytotoxic MTT assay against HaCaT cells; type: cell-based, human; details: human, HaCaT cells (human keratinocytes), read-out: Cytotoxicity IC50 against HaCaTs
Protocol: (§1) The cytotoxicity of caffeic acid and its amide derivatives were evaluated with two cell lines, human keratinocyte (HaCaT) and DP cells, using the common cell viability assay with MTT. HaCaT and DP cells were seeded at 1 × 10^4 cell/well in 96-well plates in a complete DMEM medium, incubated overnight, and treated with test compounds at 0–50 µM for 24 h. The stock solutions of all the test compounds were prepared in DMSO. Each compound was serially diluted in DMEM to achieve concentrations at 0.5–50 µM; DMEM was used as the negative control. After 24 h of treatment, the culture medium was removed, and cell viability was determined by adding 100 µL of 0.5 mg/mL MTT at 37 °C in darkness for 3 h. After removing the MTT solution, 100 µL of DMSO was added to each well to dissolve the purple formazan crystals. The absorbance was measured at 570 nm using a microplate reader, and the IC50 value was calculated. Each experiment was performed in triplicates.

[3] = biological target: T1, steroid 5α-reductase type 1 (SRD5A1) (Homo sapiens, UniProt P18405); assay: HaCaT cell-based SRD5A1 inhibitory assay with direct DHT detection by HPTLC
T1 construct: HaCaTs-produced SRD5A1 smoothly converted testosterone to DHT; endogenous in cells; host or cells: HaCaT human keratinocytes
T1 sequence (P18405 1-259): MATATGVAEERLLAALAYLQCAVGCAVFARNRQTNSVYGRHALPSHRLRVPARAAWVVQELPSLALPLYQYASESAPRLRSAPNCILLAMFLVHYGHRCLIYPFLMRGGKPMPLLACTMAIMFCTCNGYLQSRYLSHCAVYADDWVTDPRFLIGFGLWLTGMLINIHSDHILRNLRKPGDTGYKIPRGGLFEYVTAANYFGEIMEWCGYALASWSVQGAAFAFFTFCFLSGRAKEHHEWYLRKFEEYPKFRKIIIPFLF

SRD5A1 mRNA = SRD5A1 mRNA level by RT-qPCR in HaCaT cells; type: cell-based, human; details: 0.5, 1 and 2.5 µM; 12 h and 24 h
Protocol: HaCaT cells (2 × 10^5 cells/well in 6 well-plates) were treated with compound 4 (0, 0.5, 1 and 2.5 µM) for 12 and 24 h. Then, total RNA was extracted by using Purelink RNA mini purification kit. The isolated RNA was purified by DNase I and further used as a template for synthesis of cDNA using RevertAid First Stand cDNA Synthesis Kit. Quantitative real-time PCR (RT-qPCR) was performed with a C100 Thermal Cycler (Bio-Rad CFX384 real-time pcr system) using Luna Universal qPCR Master Mix (M3003). Specific forward and reverse primers of the interested gene was indicated as following.
The reactions were incubated for 39 cycles of 95 °C for 5 s, 60 °C for 30 s and 65 °C for 5 s. The expression of target mRNA was determined as the relative comparison via the ΔCt method. The threshold (Ct) of target genes were normalized with GAPDH (Ct) values.

[4] = test system: dermal papilla (DP) cells; assay: In vitro cytotoxic MTT assay against DP cells; type: cell-based, human; details: 0.5–50 µM, 24 h
Protocol: as §1

HaCaTs-produced SRD5A1 = biological target: T2, HaCaTs-produced SRD5A1 (Homo sapiens, UniProt P18405); assay: Whole-cell-based kinetic study of HaCaT-produced SRD5A1 with HPTLC; design: Apparent Vmax: unit not given here; details: 12 h
T2 construct: HaCaTs-produced SRD5A1 smoothly converted testosterone to DHT; endogenous in cells; host or cells: HaCaT human keratinocytes
T2 sequence (P18405 1-259): T1 sequence (P18405 1-259)
Protocol: The in vitro whole HaCaT cell-based assay for the kinetic inhibition against SRD5A1 included culturing the cells for 48 h, treating the cells with testosterone and compound 4 for 12 h and evaluating the % intensity of DHT and cell viability using HPTLC analysis and MTT assay, respectively. The HaCaT cells were seeded and incubated as same as the method shown in 3.8. For the evaluation of dose-dependent activity of testosterone, the different concentration of testosterone (0 − 50 μM) and DMEM with 0.1% DMSO were added. […] DMEM with 0.1% DMSO was used as negative control. Then, the cells were incubated for 12 h. The collection of cell culture medium, extraction process, sample preparation and HPTLC detection were prepared by the method mentioned above (3.8). The obtaining chromatogram was visualized by CAMAG HPTLC Software vision CATS and analyzed by Image J software. The percentage of DHT intensity was calculated based on the intensity of DHT normalized by the standard of DHT at 100 μM. At the same time, the cell viability of the treated cells was assessed by the MTT assay. Each experiment was repeated in triplicate.

For O=C(C=Cc1ccc(O)c(O)c1)Nc1cc(C(F)(F)F)cc(C(F)(F)F)c1 [Compound 4, 3-(3,4-dihydroxyphenyl)-N-[3,5-bis (trifluoromethyl)phenyl]-2-propenamide], the viability at 24 h, 1 µM ([1]; compound 1.0 µM, read-out: % Cell viability ± SD) was 88%, the viability at 24 h, 5 µM ([1]; compound 5 µM, read-out: Viability of treated cells) was under 80% and the “Cytotoxicity between control and treatment groups” value (HaCaT cells; 0.2, 0.5, 1 and 2.5 µM) was “no significant cytotoxicity”. The “% Cell viability ± SD” value (HaCaT cells; compound 1.0 µM, 24 h, 1 µM) was 87.85 ± 1.13%, the IC50 at 24 h [2] was 30 ± 8.69 µM and the “Concentration dependence of inhibition of DHT production” value ([3]; 0.2–2.5 µM, HaCaT) was “concentration-dependent inhibition”. The IC50 ([3]; HaCaT cells, 10 µM testosterone, 24 h, read-out: IC50 of inhibition of DHT production (SRD5A1 activity)) was 1.44 ± 0.13 µM, the inhibition at 2.5 µM ([3]; HaCaT, 2.5 µM, 12 h, read-out: Inhibition of SRD5A1 enzyme activity) was about 50% and the inhibition at 1 µM ([3]; HaCaT, compound 1.0 µM, HaCaT, 24 h, read-out: % Inhibition of DHT production ± SD) was 46%. The “Potency of DHT inhibition relative to avicequinone C” value ([3]; IC50 1.44 vs 4.45 µM) was 3 times, the “% Inhibition of DHT production ± SD” value ([3]; compound 1.0 µM, HaCaT, 24 h, 1 µM) was 45.67 ± 3.57% and the “Effect on mRNA expression of SRD5A1” value (SRD5A1 mRNA) was “did not affect”. The “Toxicity against DP cells” value [4] was “no toxicity”, the “Apparent Vmax” value (HaCaTs-produced SRD5A1; compound 4 0.2 µM) was 96.08 and the “Apparent Vmax” value (HaCaTs-produced SRD5A1; compound 4 0.5 µM) was 76.27. For the same molecule, the “Apparent Vmax” value (HaCaTs-produced SRD5A1; compound 4 1.0 µM) was 74.06, the “Apparent Vmax” value (HaCaTs-produced SRD5A1; compound 4 2.5 µM) was 69.85 and the Ki (HaCaTs-produced SRD5A1; mixed-model inhibition analysis, non-linear) was 2.38 µM. For the same molecule, the “% DHT intensity ± S.D.” value (HaCaTs-produced SRD5A1; testosterone 1 µM, compound 4 0.2 µM) was 0.83 ± 0.219%, the “% DHT intensity ± S.D.” value (HaCaTs-produced SRD5A1; testosterone 1 µM, compound 4 0.5 µM) was 0.70 ± 0.16% and the “% DHT intensity ± S.D.” value (HaCaTs-produced SRD5A1; testosterone 1 µM, compound 4 1.0 µM) was 0.12 ± 0.01%. The “% DHT intensity ± S.D.” value (HaCaTs-produced SRD5A1; testosterone 1 µM, compound 4 2.5 µM) was 0.13 ± 0.03%, the “% DHT intensity ± S.D.” value (HaCaTs-produced SRD5A1; testosterone 5 µM, compound 4 0.2 µM) was 29.00 ± 1.829% and the “% DHT intensity ± S.D.” value (HaCaTs-produced SRD5A1; testosterone 5 µM, compound 4 0.5 µM) was 44.57 ± 9.66%. The “% DHT intensity ± S.D.” value (HaCaTs-produced SRD5A1; testosterone 5 µM, compound 4 1.0 µM) was 34.49 ± 3.82%, the “% DHT intensity ± S.D.” value (HaCaTs-produced SRD5A1; testosterone 5 µM, compound 4 2.5 µM) was 0.31 ± 0.04% and the “% DHT intensity ± S.D.” value (HaCaTs-produced SRD5A1; testosterone 10 µM, compound 4 0.2 µM) was 48.11 ± 5.339%. For the same molecule, the “% DHT intensity ± S.D.” value (HaCaTs-produced SRD5A1; testosterone 10 µM, compound 4 0.5 µM) was 23.04 ± 2.83%, the “% DHT intensity ± S.D.” value (HaCaTs-produced SRD5A1; testosterone 10 µM, compound 4 1.0 µM) was 27.21 ± 2.98% and the “% DHT intensity ± S.D.” value (HaCaTs-produced SRD5A1; testosterone 10 µM, compound 4 2.5 µM) was 30.48 ± 5.08%. For the same molecule, the “% DHT intensity ± S.D.” value (HaCaTs-produced SRD5A1; testosterone 25 µM, compound 4 0.2 µM) was 86.19 ± 4.08%, the “% DHT intensity ± S.D.” value (HaCaTs-produced SRD5A1; testosterone 25 µM, compound 4 0.5 µM) was 71.91 ± 2.00% and the “% DHT intensity ± S.D.” value (HaCaTs-produced SRD5A1; testosterone 25 µM, compound 4 1.0 µM) was 68.49 ± 0.95%. The “% DHT intensity ± S.D.” value (HaCaTs-produced SRD5A1; testosterone 25 µM, compound 4 2.5 µM) was 46.20 ± 0.91%, the “% DHT intensity ± S.D.” value (HaCaTs-produced SRD5A1; testosterone 50 µM, compound 4 0.2 µM) was 90.49 ±10.32% and the “% DHT intensity ± S.D.” value (HaCaTs-produced SRD5A1; testosterone 50 µM, compound 4 0.5 µM) was 72.72 ± 12.38%. For the same molecule, the “% DHT intensity ± S.D.” value (HaCaTs-produced SRD5A1; testosterone 50 µM, compound 4 1.0 µM) was 65.61 ± 2.06%, the “% DHT intensity ± S.D.” value (HaCaTs-produced SRD5A1; testosterone 50 µM, compound 4 2.5 µM) was 55.01 ± 2.40% and the “Mode of SRD5A1 inhibition” value (HaCaTs-produced SRD5A1; whole-cell) was “mixed inhibition”.
